Test results published in US20200237715A1, “COX-2 Inhibitors for the Treatment of Ocular Disease” (priority 2019, published 2020).
Values joined by “and” are separate entries in the source; they are usually repeats but may differ in a detail not shown here. Equal entries are not always repeated. Where two headings read alike, the source gives them in different places. Each block holds one compound with its values, some of them ahead of it.

How the values were obtained:
[1] = topical nepafenac, Cmax, cited from earlier work
[2] = Plasma protein binding; type: in vitro ADME
[3] = Rabbit study: subconjunctival DEPOT of the ethyl ester of SD-8381 in sesame oil, drug concentration in ocular tissues and plasma by LC-MS; type: in vivo, DB rabbits
Experimental: All reagents were obtained from Sigma-Aldrich with the exception that sesame oil was obtained from Sawall, 2965 Oakland Dr, Kalamazoo, Mich. The ethyl ester of SD-8381 was formulated in sesame oil as a saturated solution at room temperature. Saturation was assured by warming under water warm to the touch for 10 minutes and noting that upon returning to room temperature the powder was in equilibrium with what was apparently a crystalline form of the drug in that the small amount of remaining drug was now transparent (for example, the compound had clearly dissolved and crystallized out of solution). The formulation was checked for topical instillation irritancy. Two male DB rabbits were sedated with isoflurane vapors to effect. Eyes were anesthetized with topical proparacaine, the area treated with ophthalmic betadine and rinsed with sterile saline. The test article was injected (0.05 mL) as a subconjunctival DEPOT to two male DB rabbits, OU using a 29 g needle.
The rabbits were sacrificed at a 6-days. Samples collected were (bilateral) aqueous humor, iris plus ciliary body, cornea, conjunctiva, sclera, choroid, retina, lens, vitreous humor and plasma which were placed in tared vials and stored at −20° C. prior to analysis. Care was taken to not cross contaminate fields by dissecting high concentration tissues as separately as possible from other tissues.
The free acid of SD-8381 was formed enzymatically using ethyl 6,8-dichloro-2-(trifluoromethyl)-2H-chromene-3-carboxylate and porcine esterase (all reagents and chemicals are from Sigma-Aldrich). The reaction was initiated by adding 5 mg of compound in methanol to 8 mg of esterase in 250 μL of 50 mM potassium phosphate pH 8 buffer. The reaction proceeded at 37° C. and was complete after 3 hours. Conversion of the […] to the free acid was monitored using HPLC-UV with 254 nm detection and confirmed by flow injection analysis using a Waters Quattro Micro mass spectrometer in negative ion mode at unit resolution. SD-8381 free acid was purified by HPLC fraction collection using a 4.6×250 mm Agilent Eclipse XDB-C18 column using 0.1% formic acid/H2O/acetonitrile mobiles phases. Fractions containing the free acid were dried in a weighed tube using a SpeedVac concentrator.
Free acid SD-8381 was reconstituted in methanol to establish w/v concentration standards for LC-MS analysis. Analytical standards were prepares using EDTA mouse plasma from BioVT. A dilution series of free acid SD-8381 in methanol were spiked into mouse plasma and each concentration was combined with 3 volumes of methanol containing 1 μM diclofenac as a surrogate internal standard as no stable-isotope labeled internal standard (SIL-IS) of SD-8381 is currently available. Standards and plasma blanks were vortex mixed and centrifuged at 13K×g for 5 minutes. Supernatant was transferred to glass insert vials and immediately analyzed by LC-MS analysis. Tissue samples were homogenized using a GE Healthcare sample grinding kit #80-6483-37 and 1 volume of DPBS containing 50% methanol. Proteins were precipitated using 2 additional volumes of methanol and vortex mixing for 5 minutes. Samples were centrifuged at 13K×g for 5 minutes. Supernatant was removed and dried in a SpeedVac concentrator under medium heat. Sample was reconstituted using methanol containing 1 uM Diclofenac. Samples were analyzed using a Waters nanoAcquity UPLC in-line with a high-resolution Waters Synapt G2-S mass spectrometer via an electrospray ion source. UPLC separation of used performed using a 0.375 mm×10 cm Waters XBridge C18 3.5 u column and a flow rate of 10 μL per minute. Mobile phases were 0.1% formic acid in water as mobile phase A and 0.1% formic acid in acetonitrile as mobile phase B. Gradient elution was accomplished with 1% B initial sample loading with ramping to 95% B at 3 minutes, holding at 95% B for 5 minutes, and returning to 1% B at 8.1 minutes. Total run time was 12 minutes and 5 μL of sample was injected per analysis. […]

[4] = Dexamethasone periocular DEPOT (sub-Tenon injection), retina-choroid concentrations, literature comparison; type: in vivo; settings: dexamethasone sub-Tenon DEPOT versus SD-8381 DEPOT
Experimental: For comparison, the concentrations in the retina-choroid for a DEPOT of a similar lipophilic small molecule, dexamethasone, when placed very close to the retina (sub-Tenon injection) were 0.31 and 0.93 μM [Huang Z, Yang W, Zong Y, Qiu S, Chen X, Sun X, Zhou Y, Xie Z, and Gao Q. A study of the dexamethasone sodium phosphate release properties from a periocular capsular drug delivery system. Drug Delivery 2016:23; 839-847]. […] Also, these dexamethasone data are for a situation where drug delivery has been optimized.

[5] = DEPOT sub-Tenon's sac, steady-state, cited from earlier work
[6] = DEPOT, steady-state, 6 days, high value of the same subject dropped
[7] = SD-8381 free acid measured, subconjunctival DEPOT 0.05 mL OU of ethyl ester in sesame oil, rabbits sacrificed at 6 days

SMILES: Nc1c(CC(=O)O)cccc1C(=O)c1ccccc1 [Amfenac, 2-amino-3-benzoylbenzeneacetic acid]
- Anterior choroid concentration [1]: (0.47) μM
- Anterior retina concentration [1]: (0.011) μM
- Posterior choroid concentration [1]: 0.042 µM
- Posterior retina concentration [1]: 0.00077 µM
- Anterior choroid concentration ([1]; listed as amfenac): 0.468 µM
- Anterior retina concentration ([1]; listed as amfenac): 0.011 µM
- Posterior choroid concentration ([1]; listed as amfenac): 0.0418 µM
- Posterior retina concentration ([1]; listed as amfenac): 0.000765 µM

- Binding to plasma proteins [2]: highly bound to plasma proteins
- Choroid concentration, mean (n = 4) ([3]; DEPOT, steady-state, 6 days): 96 (n = 4) μM
- Retina concentration, mean (n = 4) ([3]; DEPOT, steady-state, 6 days): 13 (n = 4) μM
- Choroid concentration, average with high value dropped (n = 3) [3, 6]: 20.9 μM and 21 (n = 3)* μM
- Retina concentration, average with high value dropped (n = 3) [3, 6]: 5.17 μM and 5.2 (n = 3)* μM
- Plasma concentration relative to ocular tissues (fold less) ([3]; plasma versus ocular tissues): 10^2-10^4
SMILES: O=C(O)C1=Cc2cc(Cl)cc(Cl)c2OC1C(F)(F)F (stereo not drawn) [SD-8381, 6.8-Dichloro-2-trifluoromethyl-2H-1-benzopyran-3-carboxylic acid]
- Retina-choroid concentration at steady-state compared with nepafenac following topical administration ([3]; SD-8381 DEPOT versus literature nepafenac): approximately two orders of magnitude higher
- Choroid concentration, individual values [3, 7]: 322 µM and 9.78 µM and 2.43 µM and 50.4 µM
- Retina concentration, individual values [3, 7]: 36.8 µM and 2.01 µM and 9.14 µM and 4.37 µM

SMILES: NC(=O)Cc1cccc(C(=O)c2ccccc2)c1N [Nepafenac, 2-amino-3-benzoylbenzeneacetamide]
- Anterior choroid concentration [1]: (0.71) μM
- Anterior retina concentration [1]: (0.11) μM
- Posterior choroid concentration [1]: 0.055 µM
- Posterior retina concentration [1]: 0.0027 µM
- Anterior choroid concentration ([1]; listed as nepafenac): 0.714 µM
- Anterior retina concentration ([1]; listed as nepafenac): 0.110 µM
- Posterior choroid concentration ([1]; listed as nepafenac): 0.0551 µM
- Posterior retina concentration ([1]; listed as nepafenac): 0.00272 µM

- Retina-choroid concentration compared with SD-8381 [4]: almost two orders of magnitude less
SMILES: C[C@@H]1C[C@H]2[C@@H]3CCC4=CC(=O)C=C[C@]4(C)[C@@]3(F)[C@@H](O)C[C@]2(C)[C@@]1(O)C(=O)CO [Dexamethasone, dexamethasone]
- Choroid concentration [5]: 0.92 µM
- Retina concentration [5]: 0.31 µM
- Choroid concentration ([5]; listed as dexamethasone): 0.93 µM

SMILES: CCOC(=O)C1=Cc2cc(Cl)cc(Cl)c2OC1C(F)(F)F (stereo not drawn) [ethyl ester of SD-8381, ethyl 6,8-dichloro-2-(trifluoromethyl)-2H-chromene-3-carboxylate]
- Adverse events (excessive scratching, redness, other signs of irritation and pain) ([3]; subconjunctival DEPOT 0.05 mL OU, saturated solution in sesame oil, two male DB rabbits): No apparent adverse events
